The nature of experiment [1]: Fluorescence emission spectra without and with saturating ligand (wavelength shift, ΔIstd, ΔRmax). Set-up: key to ΔIstd: intensity change at λstd normalized to average intensity; key to ΔRmax: ratio change of two emission band areas, unbound vs saturated. The following applies: unbound vs ligand-saturated; for ΔIstd: standard intensity change; for ΔRmax: standard ratiometric change. Here is the method:
(§1) Fluorimetry. All measurements were conducted with an SLM Aminco-Bowman series 2 fluorimeter, with sample stirring at 25° C. Fluorescence emission spectra were acquired with excitation and emission slit widths of 4 and 8 nm, respectively. Photomultiplier tube potential was maintained between 400 and 800 volts. Protein concentrations were in the range of 50 to 1000 nM. Fluorophore-specific excitation was at the following approximate wavelengths: tryptophan, 290 nm; acrylodan, 390 nm; fluorescein, 485 nm; pyrene, 340 nm; NBD and NBDE, 490 nm; JPW4039, 485 nm; JPW4042, 470 nm; JPW4045, 470 nm.
Assessment of fluorescent biosensor function. Fluorescence emission spectra of bPBP-fluorophore conjugates were recorded in the absence and presence of saturating ligand concentrations. Spectral changes were characterized by four parameters: wavelength shift (the difference between the wavelengths of emission maximum in the unbound and ligand-saturated states), direction of intensity change (increase or decrease in intensity at the wavelengths of maximum emission in the two states), standard intensity change (ΔIstd), and standard ratiometric change (ΔR). ΔIstd is defined as the normalized intensity change relative to the average intensity, determined at the wavelength mid-point between the two emission maxima:
[formula] where λstd=(λmax, unbound+λmax, saturated)/2 and I1, I2 are the fluorescence intensities at λstd of each spectrum respectively (FIG. 4A). ΔR is defined in terms of two emission bands, A1 ([λ1, λ2]) and A2 ([λ3, λ4]) (FIG. 4B):
[formula] where ^∘A1, […] the areas in the absence of ligand, and ^∞A1, ^∞A2 the areas in the presence of saturating ligand. A computer program was used to enumerate ΔR for all possible pairs of wavelength bands in the two spectra, to identify the optimal sensing condition, defined as the maximum value of ΔR. Adjustable parameters of the algorithm, and their values used for ΔRmax quantities reported here, are: step size (2 nm), step width (10 nm), minimum integration area limit (fraction of total: 0.1), and maximum integration area limit (fraction of total: 1).

Experiment [2] deals with E. coli glucose binding protein variant W183C, fluorophore conjugate (Escherichia coli, UniProt P0AEE5, W206C). The experiment in a line: biochemical. The procedure: The normal serum glucose range (euglycemia) of 4 to 6 mM is delimited by vertical lines.
(§2) Molecular Cloning. […] Amplified products were cloned into one of the protein expression vectors pAED4 (Doering, “Functional and structural studies of a small f-actin binding domain” in Ph.D. thesis, Massachusetts Institute of Technology, 1992); pKK223-3 (Brosius & Holy, Proc. Natl. Acad. Sci. USA 81:6929-6933, 1984); or pET vectors (Studier et al., Meth. Enzymol. 185:60-89, 1990) (Novagen). N-terminal oligonucleotide primers were designed to clone only the processed periplasmic form, deleting the signal sequence. The C-terminal primer was designed to append the sequence Gly-Ser-Gly-(His)n or Gly-Ser-(His)n, where n=5, 6, or 10. Two tandem stop codons (TAATGA) follow the last His codon. […] Single amino acid substitutions were generated by overlapping PCR mutagenesis (Ho et al., Gene 77:51-59, 1989). All clones and mutations were confirmed by nucleotide sequencing. In the case of arabinose BP, the single cysteine in the wild type sequence was replaced by alanine to eliminate the possibility of reporter group conjugation to this thiol (Miller et al., J. Biol. Chem. 254:7521-7528, 1979). Additionally the sequence of Fe(III) BP was mutated by substitution of Glu57 with Asp to raise the Kd to a concentration range conveniently measured using Fe(III) citrate.
(§3) Fluorophore conjugation to cysteine-substituted bPBPs. Thiol-reactive fluorophores obtained from Molecular Probes (Eugene, Oreg.) were 5-iodoacetamidofluorescein (fluorescein); N-(1-pyrene) iodoacetamide (pyrene); N,N′-dimethyl-N-(iodoacetyl)-N′-(7-nitrobenz-2-oxa-1,3-diazol-4-yl)ethylenediamide (NBD); N-((2-(iodoacetoxy)ethyl)-N-methyl)amino-7-nitrobenz-2-oxa-1,3-diazole (NBDE); and 6-acryloyl-2-dimethylaminonaphthalene (acrylodan). The styryl and naphthyl dyes JPW4039, JPW4042, and JPW4045 (FIG. 3) were synthesized at the University of Connecticut. All fluorophore conjugation steps were typically carried out at room temperature. To protein at a concentration of 100 μM was added tris-(2-carboxyethyl)phosphine HCl to a five-fold molar excess to reduce intermolecular disulfide bonds. A thiol-reactive fluorophore (20 to 25 mM in acetonitrile or dimethyl sulfoxide) was added in small aliquots to a five-fold molar excess over protein. Conjugation proceeded in the dark at room temperature for 4 hours, or overnight at 4° C. Separation of protein from unreacted fluorophore was achieved by exhaustive dialysis or by size-exclusion chromatography. The efficiency of reporter group attachment was assessed by determination of unreacted thiol with Ellman's reagent (Ellman, Arch. Biochem. Biophys. 74:443-450, 1958) or by measuring the ratio of fluorophore to protein from absorbance spectra of the purified conjugate.
as §1
(§4) Corrections were made for dilution of the protein and for background signal from buffer. Binding curves were fit to binding isotherms using equation 3 or 4, as appropriate.
Analyte affinity measurements.

The target in experiment [3] is T1, E. coli glutamate/aspartate binding protein (YBEJ, SEQ ID NO:3) variant T129C, fluorophore conjugate (Escherichia coli, UniProt P37902, T129C).
T1 construct: The underlined methionine is the initiation codon for expression of YBEJ used in the study; initiation methionine (N); Gly-Ser-Gly-(His)n or Gly-Ser-(His)n (C); made in house; host or cells: E. coli BL21-DE3
The experiment in a line: Fluorimetric titration of fluorophore conjugates.
Excerpt: as §2, §3, §1, §4
(§5) Analyte affinity measurements. […] The emission wavelength monitored was that of maximum difference in intensity between the ligand-free and bound states. For each conjugate, fluorescence intensiometric observations were fit to a hyperbolic binding isotherm for a two-state model (Marvin et al., Proc. Natl. Acad. Sci. USA 94:4366-4371, 1997): […]

The target in experiment [4] is T2, E. coli glutamate/aspartate binding protein (YBEJ, SEQ ID NO:3) variant Q123C, fluorophore conjugate (Escherichia coli, UniProt P37902, Q123C).
T2 construct: The underlined methionine is the initiation codon for expression of YBEJ used in the study; initiation methionine (N); Gly-Ser-Gly-(His)n or Gly-Ser-(His)n (C); made in house; host or cells: E. coli BL21-DE3
The experiment in a line: Fluorimetric titration of fluorophore conjugates.
Excerpt: as §2, §3, §1, §4, §5

T1 sequence (P37902 other isoform, or with tags, fused parts or gaps T129C): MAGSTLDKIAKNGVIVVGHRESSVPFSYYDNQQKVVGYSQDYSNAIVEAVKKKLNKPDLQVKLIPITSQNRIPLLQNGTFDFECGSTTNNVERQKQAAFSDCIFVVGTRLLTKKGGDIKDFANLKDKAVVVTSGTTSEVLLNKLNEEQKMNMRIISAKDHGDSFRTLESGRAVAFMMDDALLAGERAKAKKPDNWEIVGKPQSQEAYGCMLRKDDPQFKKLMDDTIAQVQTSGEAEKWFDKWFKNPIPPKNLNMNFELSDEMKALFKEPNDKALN
E. coli glucose binding protein variant W183C, fluorophore conjugate, sequence (P0AEE5 24-332 W206C limits assumed): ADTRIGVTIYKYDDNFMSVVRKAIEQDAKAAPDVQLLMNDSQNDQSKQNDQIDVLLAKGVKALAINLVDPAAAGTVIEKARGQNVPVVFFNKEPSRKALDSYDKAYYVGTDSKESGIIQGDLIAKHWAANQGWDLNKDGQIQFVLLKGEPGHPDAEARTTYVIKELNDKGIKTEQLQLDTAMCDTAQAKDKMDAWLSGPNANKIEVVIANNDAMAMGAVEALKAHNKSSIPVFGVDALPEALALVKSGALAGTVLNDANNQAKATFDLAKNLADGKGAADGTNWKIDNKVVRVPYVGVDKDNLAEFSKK
T2 sequence (P37902 other isoform, or with tags, fused parts or gaps Q123C): as the sequence (P37902 other isoform, or with tags, fused parts or gaps T129C) above, with Q96C, C102T counted along it

sulfate BP Y67C Fluorescein: in experiment [1], the ΔIstd stood at 0.01 and the ΔRmax stood at 0.04.
On the same counts, the results for sulfate BP Y67C Pyrene are 0.02 and 0.48.
For sulfate BP R134C Pyrene the same measures were 0.15 and 1.30.
For sulfate BP W290C NBD the same measures were 0.06 and 0.11.
Take sulfate BP Q294C Fluorescein: in experiment [1], the ΔIstd is listed as 0.00 and the ΔRmax worked out at 0.11.
On the same counts, the results for sulfate BP L65C JPW4042 are 0.40 and 1.82.
sulfate BP W290C Fluorescein: in experiment [1], the ΔIstd is recorded as 0.04 and the ΔRmax came out at 0.09.
For sulfate BP L65C NBD, in experiment [1], the ΔIstd amounted to 0.02 and the ΔRmax came to 0.61.
On the same counts, the results for sulfate BP W290C Acrylodan are 0.04 and 0.03.
As to sulfate BP R134C Fluorescein, in experiment [1], the ΔIstd worked out at 0.01 and the ΔRmax amounted to 0.02.
sulfate BP L65C Fluorescein: in experiment [1], the ΔIstd is 0.39 and the ΔRmax is listed as 1.31.
For sulfate BP R134C JPW4039 the same measures were 0.08 and 2.02.
For sulfate BP W290C Pyrene the same measures were 0.16 and 0.37.
On the same counts, the results for sulfate BP Q294C JPW4042 are 0.27 and 1.17.
For sulfate BP R134C Acrylodan, in experiment [1], the ΔIstd is recorded as 0.18 and the ΔRmax turned out to be 2.26.
For sulfate BP W290C JPW4042 the same measures were 0.43 and 0.89.
For sulfate BP L65C Pyrene the same measures were 0.13 and 1.20.
On the same counts, the results for sulfate BP Q294C NBD are 0.00 and 0.02.
With sulfate BP Y67C NBD, in experiment [1], the ΔIstd came out at 0.13 and the ΔRmax came to 0.20.
Take `OC[C@H]1OC(O)[C@H](O)[C@@H](O)[C@@H]1O` (stereo partly shown) [glucose]: the equilibrium dissociation constant (Kd) (in general, the concentration at which binding is half-saturated) was 5.98 mM in experiment [2] (Kd, Acrylodan conjugate, endosteric site); 17.6 mM in experiment [2] (Kd, Fluorescein conjugate, endosteric site); around 10.4 mM in experiment [2] (appKd, W183C-acrylodan, ratiometric, F450-459/F486-495); around 5 mM in experiment [2] (appKd, W183C-acrylodan, ratiometric, F450-459/F550-559); around 17.4 mM in experiment [2] (appKd, W183C-acrylodan, ratiometric, F472-481/F450-459); 5.98 mM in experiment [2] (dissociation constant, W183C-acrylodan).
Regarding sulfate BP Q294C Pyrene, in experiment [1], the ΔIstd stood at 0.01 and the ΔRmax is given as 0.08.
As for sulfate BP Q294C Acrylodan, in experiment [1], the ΔIstd worked out at 0.04 and the ΔRmax stood at 0.13.
For the molecule sulfate BP R134C NBD, in experiment [1], the ΔIstd is 0.58 and the ΔRmax is on record as 0.37.
Turning to sulfate BP Y67C Acrylodan, in experiment [1], the ΔIstd is reported as 0.00 and the ΔRmax turned out to be 0.12.
For the molecule `NC(=O)CC[C@H](N)C(=O)O` [glutamine], the dissociation constant (Kd) in experiment [3] (T129C-JPW4039) turned out to be 23 µM; in experiment [3] (T129C-NBD) it was 12.1 µM; in experiment [4] it was 49 µM.
On to `NC(=O)C[C@H](N)C(=O)O` [asparagine], for which the Kd in experiment [3] (T129C-NBD) came out at 5.4 µM; in experiment [4] it was 96 µM.
Consider sulfate BP L65C Acrylodan, for which, in experiment [1], the ΔIstd came out at 0.39 and the ΔRmax is given as 2.95.
On the same counts, the results for sulfate BP R134C JPW4042 are 0.52 and 0.96.
